Laboratory results published in patent US7462605B2, “Phosphoramidate compounds and methods of use” (Celmed Oncology (USA), Inc., priority 2002, dated 2008).
pIC50: −log10 of the molar value. Where two headings read alike, the source gives them in different places.

Tests used:
[1] = test system: MCF7 (Breast) tumor cells; test: alamarBlue growth inhibition, MCF7; format: cell-based, human
Description: (§1) Growth Inhibition Studies. Cells growing exponentially were transferred to 384-well flat bottom tissue culture plates. All cell types were plated at a density of 500 cells per well in 25 μL of complete medium (RPMI 1640+10% fetal bovine serum+antibiotics/antimycotics). After 24 hours (day 0), 25 μL of complete medium containing the experimental compounds over the dose range of 10^ñ3 to 10^ñ10 M were added in triplicate. […] 5 μL of the redox indicator, alamarBlue, was added to each well (10% v/v). After 4 hours incubation at 37° C., fluorescence was monitored at 535 nm excitation and 595 nm emission.
(§2) Concentration vs. relative fluorescence units (RFU) were plotted, and sigmoid curves were fit using the Hill equation.

NHDF (Skin) normal cells = test: alamarBlue growth inhibition, NHDF; format: cell-based, human; details: 120 hours
Description: as §1, §2

H630 colon cancer cells = test: alamarBlue cytotoxicity, H630 parental; format: cell-based, human; details: Drug Selection None, read-out: NB1011-IC50
Description: as §1, §2
(§3) Cells were grown and characterized as described above. TS expression level is relative to CCD18co, a normal colon epithelial cell line. Tritium release is background substracted as described in Methods. ND=Not detectable above background.

SOAS2 (Bone) tumor cells = test: alamarBlue growth inhibition, SOAS2; format: cell-based, human; details: 120 hours
Description: as §1, §2

A431 (Skin) tumor cells = test: alamarBlue growth inhibition, A431; format: cell-based, human; details: 120 hours
Description: as §1, §2

[2] = test system: CCD18co normal colon epithelial cells; test: Thymidine rescue, alamarBlue cytotoxicity; format: cell-based, human; details: in the presence of 10 μM thymidine
Source text: An additional approach was taken to understanding whether NB1011 might interfere with cell growth primarily by inactivating TS. This approach is based upon thymidine rescue of TS-blocked cells. […] For this reason, they survive only by scavenger mechanisms. One of the important scavenger mechanisms is utilization of extracellular thymidine. Thymidine incorporated by target cells can be converted to dTMP, usually by thymidine kinase, and thus continue DNA synthesis. Other pathways for use of exogenous thymidine have also been described If an important mechanism for NB1011 activity is via inhibition of endogenous TS, then the cytotoxicity should be relieved when thymidine is added to the cell culture media. For this experiment, a number of tumor cell lines were screened for their sensitivity to Tomudex and 5FdUrd, and ability to be rescued from these agents via thymidine supplementation. […] Experiments were carried out as described by (Patterson, et al. (1998)) with or without 10 μM thymidine, except that the alamarBlue assay was employed to determine cytotoxicity.

[3] = test system: COLO320 (Colon) tumor cells; test: alamarBlue growth inhibition, COLO320; format: cell-based, human; details: 120 hours
Description: as §1, §2

[4] = test system: MCF7 TDX (Tomudex-resistant MCF7 breast cancer cells); test: alamarBlue cytotoxicity, MCF7 TDX; format: cell-based, human
Description: as §1, §2
Reversal of Resistance. The origin and characteristics of the human breast cancer MCF7 TDX cell line have been previously described (Drake, et al. (1996)). Briefly, MCF-7 breast cancer cells were selected in vitro for resistance to Tomudex by continuous exposure to stepwise increases in TDX concentrations up to 2.0 μM. […] After a dramatic initial cell killing effect, resistant colonies emerged, and vigorously growing monolayers were formed. TS protein level and IC50 for 5-FU, TDX, and NB1011 were determined for the resultant MCF7 TDX/1011 cell line as described in above by western blot and the alamarBlue cytotoxicity assay, respectively.

TSH/HT1080 cells = test: alamarBlue cytotoxicity, HT1080 expressing high GFP-TS; format: cell-based, human; details: second line printed TSL/HT1080, TS Level 702%
Description: Cell lines and transfection. HT1080 cells were grown in PRM11640 medium supplemented with 10% fetal calf serum, and transfected with GFP-TS expression vector. 48 hours after, transfection cells were tripsinized and replated in culture medium containing 750 μg/ml G418. After selection with G418 for two weeks, surviving cells were sorted based upon fluorescence expression. One clone with higher fluorescence expression (named as TSH/HT1080) and one clone with lower fluorescence expression (named as TSL/HT1080) were selected and expanded into cells lines. The stable HT1080 cells transfected with pEGFP-C3 were used as control.
Construction of GFP-TS expression vector. […] The cDNA was cloned into HindIII and KpnI sites of mammalian expression vector pEGFP-C3 (Clontech Laboratories. Inc., Palo Alto, Calif.), in-frame with GFP sequence. The cDNA insert was confirmed by DNA sequencing.
Growth Inhibition Studies. Cells growing exponentially were transferred to 384-well flat bottom tissue culture plates. All cell types were plated at a density of 500 cells per well in 25 μL of complete medium (RPMI 1640+10% fetal bovine serum+antibiotics/antimycotics). […] After 4 hours incubation at 37° C., fluorescence was monitored at 535 nm excitation and 595 nm emission.
as §2

N1S1 cells = test: alamarBlue cytotoxicity, N1S1 parental; format: cell-based; details: N1S1, Drug Selection None; read-out: NB1011-IC50
Description: as §1, §2, §3

MRC9 (Lung) normal cells = test: alamarBlue growth inhibition, MRC9; format: cell-based, human; details: 120 hours
Description: as §1, §2

[5] = test system: SKOV3 (Ovary) tumor cells; test: alamarBlue growth inhibition, SKOV3; format: cell-based, human; details: 120 hours
Description: as §1, §2

[6] = test system: SW620 (Colon) tumor cells; test: alamarBlue growth inhibition, SW620; format: cell-based, human; details: 120 hours
Description: as §1, §2

NHA (Brain) normal cells = test: alamarBlue growth inhibition, NHA; format: cell-based, human; details: 120 hours
Description: as §1, §2

[7] = test system: PC3 (Prostate) tumor cells; test: alamarBlue growth inhibition, PC3; format: cell-based, human; details: 120 hours
Description: as §1, §2

[8] = test system: NPRSC (Prostate) normal cells; test: alamarBlue growth inhibition, NPRSC; format: cell-based, human; details: 120 hours
Description: as §1, §2

[9] = test system: TDX-resistant MCF7 breast tumor cells; test: Tomudex inhibition of NB1011 cytotoxicity (Tomudex rescue assay, alamarBlue); details: for pIC50: read-out: NB1011 IC50
Description: Tomudex Inhibition of NB1011 Cytotoxicity. MCF7-TDX were transferred to a 384 well assay plate at 500 cells in 25 μL complete medium per well. After 24 hours (day 0), 25 μL complete medium containing a combination of NB1011 in doubling serial dilutions from 1 mM and tomudex at discrete concentrations (0,1,10,100,1000 nM) were added in duplicate. Drug exposure time was 120 hours (day 5) after which growth inhibition was measured with alamarBlue as described above in Growth Inhibition Studies (above).
Tomudex is a chemotherapeutic that acts primarily via inhibition of TS. If NB1011 exerts cytotoxicity via the TS enzyme, then inhibition of TS with Tomudex should decrease NB1011-mediated cytotoxicity. […] Cells were plated and exposed to indicated concentrations of compound(s) as described above.

[10] = test system: RKO colon cancer cells, TDX selection; test: alamarBlue cytotoxicity, RKO TDX-selected; format: cell-based, human; details: Drug Selection TDX, read-out: NB1011-IC50
Description: as §1, §2, §3

What does the source list for “5-(2-Bromovinyl)-2′-deoxyuridine phenyl N-methoxy-L-alaninyl phosphoramidate [NB1011]”?
pIC50 ([1]; MCF7, alamarBlue, read-out: IC50): 3.54; pIC50 ([1]; MCF7 Breast cancer, Drug Selection None, read-out: NB1011-IC50): 3.49; pIC50 ([1]; Tumor Cells: MCF7 (Breast), alamarBlue, 120 hours, read-out: IC50): 3.85; pIC50 (NHDF (Skin) normal cells): 3.44; pIC50 (H630 colon cancer cells): 3.38; pIC50 (SOAS2 (Bone) tumor cells): 3.63; pIC50 (A431 (Skin) tumor cells): 3.58; pIC50 [2]: 3.65; pIC50 [3]: 3.40; pIC50 ([4]; MCF7 Breast cancer, Drug Selection TDX, read-out: NB1011-IC50): 5.55; pIC50 ([4]; MCF7 TDX, alamarBlue, read-out: IC50): 5.70; pIC50 (TSH/HT1080 cells): 6.10; pIC50 (N1S1 cells): 3.31; pIC50 (MRC9 (Lung) normal cells): 3.52; pIC50 [5]: 3.32; pIC50 [6]: 3.43; pIC50 (NHA (Brain) normal cells): 3.08; pIC50 [7]: 3.74; pIC50 [8]: 3.43; inhibition of NB1011-mediated cytotoxicity by blockade of TS with Tomudex ([9]; maximum (up to)): about 25 fold; pIC50 ([9]; [Tomudex] 0 nM): 5.24; pIC50 ([9]; [Tomudex] 1 nM): 4.59; pIC50 ([9]; [Tomudex] 10 nM): 4.06; pIC50 ([9]; [Tomudex] 100 nM): 3.85; pIC50 ([9]; [Tomudex] 1000 nM): 3.99; pIC50 [10]: 4.55
